For 26 compounds, melting point results are on record in a melting point compilation (Tetko et al.; mined from patent text by program, amines drawn as free bases though some values may be those of a salt).

One may read the melting point as the temperature of the solid-liquid transition. `COCCCn1c(O)nc2ccc(C(F)(F)F)cc21` gave a melting point of 83 to 84 °C.

On to `CC(C(=O)O)c1cc([N+](=O)[O-])ccc1F` (stereo unspecified), for which the melting point lay within 88 to 90 °C.

Take `Cc1ccc(-n2nc3c(cc2=O)CCCc2sc(CO)cc2-3)cc1`: the melting point lay within 158 to 159 °C.

As to `CC(=O)Nc1nc(CO)c(Cl)s1`, the melting point is 145 to 146 °C.

For the compound `CC(=O)Oc1cc(N2C(=O)C=CC2=O)ccc1C(=O)O`, the melting point was in the range of 110 to 119 °C.

Take `C[Si](C)(C)C#Cc1ccnc(Cl)n1`: the melting point fell in the range of 51 to 54 °C.

In turn, `CCn1cc(C(=O)NCc2ccc(Cl)cc2)c(=O)c2cc(CO)sc21` had a melting point of 169 to 172 °C.

With `O=C(O)Cc1c(C(=O)c2ccccc2)[nH]c2ccc(Cl)c(Cl)c12`, the melting point lay within 206 to 210 °C.

Consider `COC(=O)c1cc(F)c(OS(=O)(=O)c2c(C)cc(C)cc2C)nc1Nc1ccc(F)cc1F`, for which the melting point fell in the range of 153 to 155 °C.

`CC(C)c1nc2cc3c(cc2[nH]1)NC(=O)C3(C)C` came in with a melting point of 282 to 284 °C.

Consider `Cn1c(COc2ccc(CC3SC(=O)N(C(c4ccccc4)(c4ccccc4)c4ccccc4)C3=O)cc2)nc2cncnc21` (stereo unspecified), for which the melting point fell in the range of 55 to 65 °C.

In the case of `O=C(CS(=O)(=O)Cc1ccccc1)CS(=O)(=O)C(c1ccc(Cl)cc1)c1ccc(Cl)cc1`, the melting point fell in the range of 72 to 90 °C.

`Cc1cnc(-c2ncn3c2[C@@H]2CCCN2C(=O)c2c(Cl)cccc2-3)o1` returned a melting point of 228 to 230 °C.

`CCN1CCC(C(=O)O)(S(=O)(=O)c2ccc(OC)cc2)CC1` showed a melting point of 209 °C.

`CC(=O)OC1CSC(Oc2ccc(-c3cccnc3)nc2Cl)C(OC(C)=O)C1OC(C)=O` (stereo unspecified): the melting point stood at 155 °C.

`O=C(O)CCCCN1C(=O)NC(=O)C1(c1ccccc1)c1ccccc1` came in with a melting point of 207 °C.

In turn, `O=c1cnc(C(F)(F)F)cn1-c1c(Cl)cc(C(F)(F)F)cc1[N+](=O)[O-]` displayed a melting point of 145 to 147 °C.

Regarding `COc1ccnc(CCc2nc3cc(-c4ccc(S(=O)(=O)N5CCOCC5)cc4)cnc3[nH]2)c1`, the melting point is 210 to 212 °C.

In turn, `O=C(O)c1ccc(OCCNC(=O)C2Cc3ccccc3N2S(=O)(=O)c2ccc(-c3ccc(F)cc3F)cc2)cc1F` (stereo unspecified) yielded a melting point of 91 to 94 °C.

The compound `CCCc1nc(Cl)c(-c2ccc(C)cc2)c(NS(=O)(=O)c2ccc(C(C)(C)C)cc2)n1` showed a melting point of 138 to 139 °C.

Take `O=C(NCCCCn1cncn1)c1sc2ccccc2c1Cl`: the melting point is 103 to 105 °C.

Turning to `NC(=O)c1ccc(NC(=O)C2CCCN(Cc3ccccc3)C2)cc1` (stereo unspecified), the melting point was 211 to 212 °C.

With `CCN1CCC(Cc2ccc(Cl)nc2)C1=C[N+](=O)[O-]` (stereo unspecified), the melting point was 129 to 131 °C.

Compound `O=c1ccn(-c2cccc(C(F)(F)F)c2)nc1-c1cn(C(c2ccccc2)(c2ccccc2)c2ccccc2)nc1-c1ccccc1` yielded a melting point of 216 to 218 °C.

As to `O=c1n(CCCC2CCCC2)ccn1-c1ccc([N+](=O)[O-])cc1`, the melting point was in the range of 105 to 107 °C.

Compound `COCCNc1cc(Cl)nc(-c2ccccc2)n1` returned a melting point of 128 to 130 °C.
